We go through 14 molecules from publication PMC8424629, “Chemical “Butterfly Effect” Explaining the Coordination Chemistry and Antimicrobial Properties of Clavanin Complexes” (Inorganic Chemistry, 2021).

Where no end group is shown, it is not given here.

For data set [1], the system named is Enterococcus spp. (for E. faecalis). Also on record: method as in earlier work. Particulars: EUCAST/2021/01/01, ref 22 (SI), cited from earlier work; for MIC breakpoints R>: resistant breakpoint; for MIC breakpoints S≤: susceptible breakpoint.
The format of data set [2] is physicochemical. The settings on record: for log β H2L / log β H3L / log β H4L / log β H5L / log β H6L / log β HL: potentiometry pH 2-11, 298 K, 4 mM HClO4, I = 40 mM SDS, ligand 0.5 mM, SD in parentheses. As to the method:
(§1) All peptides ([…]-COOH, […]-COOH, […]
(§2) were purchased from KareBay Biochem (USA) (certified purity: 98 %) and were used as received.
(§3) The carbonate-free stock solutions of 0.1 M NaOH were purchased from Sigma-Aldrich and then potentiometrically standardized with the primary standard potassium hydrogen phthalate (99.9 % purity). […]
(§4) Stability constants for proton, Zn(II) and Cu(II) complexes were calculated from pH -metric titration curves carried out over the pH range 2-11 at T = 298 K in water solution of 4 mM HClO 4 and ionic strength 40 mM (SDS), using a total volume of 3 ml. The potentiometric titrations were performed using a Metrohm Titrando 905 titrator and a Mettler Toledo InLab Micro comb ined pH electrode. The thermostabilized glass -cell was equipped with a magnetic stirring system, a microburette delivery tube and an inlet –outlet tube for argon.
(§5) Solutions were titrated with 0.1 M carbonate-free NaOH. The electrodes were calibrated daily f or hydrogen ion concentration by titrating HClO 4 with NaOH under the same experimental conditions as above. The purities and the exact concentrations of the ligand solutions were determined by the Gran method. 1 The ligand concentration was 0.5 mM. The Zn(II) and Cu(II) to ligand ratio was 1 : 1.
(§6) The standard potential and the slope of the electrode couple were computed by means of Glee 2 program. The HYPERQUAD 20063 program was used for the stability constant calculations. The standard deviations were computed by HYPERQUAD 2006 and refer to random errors only. The constants for the hydrolytic Zn(II ) species

Data set [3] is classed as binding. On the procedure:
as §1, §2, §3, §4, §5, §6

Data set [4] relates to Staphylococcus spp. (for S. aureus). Further details: method as in earlier work. The settings on record: EUCAST/2021/01/01, ref 22 (SI), cited from earlier work; for MIC breakpoints R>: resistant breakpoint; for MIC breakpoints S≤: susceptible breakpoint.
For data set [5], the system named is Enterobacterales (for E. coli). Also on record: method as in earlier work. Particulars: EUCAST/2021/01/01, ref 22 (SI), cited from earlier work; for MIC breakpoints R>: resistant breakpoint; for MIC breakpoints S≤: susceptible breakpoint.
The subject of data set [6] is Candida albicans ATCC 10231. The settings on record: ATCC 10231, 24 h.
[7] abbreviates: potentiometry, 298 K, I = 40 mM SDS, Cu(II):L 1:1, 0.5 mM, SD in parentheses.
Where [8] appears, read: potentiometry, 298 K, I = 40 mM SDS, Zn(II):L 1:1, 0.5 mM, SD in parentheses.

As to `CC1(C)S[C@@H]2[C@H](NC(=O)[C@H](N)c3ccccc3)C(=O)N2[C@H]1C(=O)O` [Ampicillin], in data set [1], the “MIC breakpoints R>” value is reported as > 8 µg/mL and the “MIC breakpoints S≤” value is reported as ≤ 4 µg/mL.
“H-VFQFLGRIIHHVGNFVHGFSHVF-OH [Clavanin B]”: in data set [2], the “log β H2L” value is 20.21 (2), the “log β H3L” value is reported as 28.47 (2), the “log β H4L” value was 36.26 (2) and the “log β H5L” value is reported as 43.35 (2). In addition, in data set [2], the “log β H6L” value is on record as 48.47 (2) and the “log β HL” value is recorded as 11.17 (1). Besides, in data set [3] (setting [7]), the “log β CuH2L” value is recorded as 28.72 (3), the “log β CuH3L” value is given as 35.57 (2), the “log β CuH4L” value is 41.57 (3) and the “log β CuH-1L” value is listed as 2.96 (3). Moreover, in data set [3] (setting [7]), the “log β CuH-2L” value was -7.17 (3), the “log β CuH-3L” value is recorded as -18.46 (4), the “log β CuHL” value is 21.00 (3) and the “log β CuL” value is on record as 12.37 (3). In data set [3] (setting [8]), the “log β ZnH2L” value is reported as 25.24 (2), the “log β ZnH3L” value is listed as 32.61 (2), the “log β ZnH4L” value is recorded as 39.23 (7) and the “log β ZnHL” value is 16.85 (1). Further, the “log β ZnL” value in data set [3] (setting [8]) is on record as 6.53 (7).
As for `C[C@@H]1O[C@@H]1P(=O)(O)O` [Fosfomycin iv, Fosfomycin], in data set [4], the “MIC breakpoints R>” value is listed as > 32 µg/mL and the “MIC breakpoints S≤” value was ≤ 32 µg/mL. For the same molecule, in data set [5], the “MIC breakpoints R>” value was > 32 µg/mL and the “MIC breakpoints S≤” value was ≤ 32 µg/mL.
Take `CC1(C)S[C@@H]2[C@H](NC(=O)[C@H](C(=O)O)c3ccsc3)C(=O)N2[C@H]1C(=O)O` [Ticarcillin]: in data set [5], the “MIC breakpoints R>” value is > 16 µg/mL and the “MIC breakpoints S≤” value is ≤ 8 µg/mL.
For the molecule `CCN1CCN(C(=O)N[C@@H](C(=O)N[C@@H]2C(=O)N3[C@@H]2SC(C)(C)[C@@H]3C(=O)O)c2ccccc2)C(=O)C1=O` [Piperacillin], in data set [5], the “MIC breakpoints R>” value is reported as > 8 µg/mL and the “MIC breakpoints S≤” value is ≤ 8 µg/mL.
As to `CC1=C(C(=O)O)N2C(=O)[C@@H](NC(=O)[C@H](N)c3ccc(O)cc3)[C@H]2SC1` [Cefadroxil], in data set [5], the “MIC breakpoints R>” value is given as > 16 µg/mL and the “MIC breakpoints S≤” value was ≤ 16 µg/mL.
Regarding `CC1=C(C(=O)O)N2C(=O)[C@@H](NC(=O)[C@H](N)c3ccccc3)[C@H]2SC1` [Cefalexin], in data set [5], the “MIC breakpoints R>” value is recorded as > 16 µg/mL and the “MIC breakpoints S≤” value was ≤ 16 µg/mL.
Take `CC1(C)S[C@@H]2[C@H](NC(=O)[C@H](N)c3ccc(O)cc3)C(=O)N2[C@H]1C(=O)O` [Amoxicillin]: in data set [1], the “MIC breakpoints R>” value is > 8 µg/mL and the “MIC breakpoints S≤” value was ≤ 4 µg/mL.
In the case of `O=[N+]([O-])c1ccc(O)c2ncccc12` [Nitroxoline], in data set [5], the “MIC breakpoints R>” value is on record as > 16 µg/mL and the “MIC breakpoints S≤” value is reported as ≤ 16 µg/mL.
A word on the MIC: it is the smallest concentration in the dilution series that meets the test's criterion for growth inhibition. A higher MIC goes with a less susceptible organism. The molecule “H-LFKLLGKIIHHVGNFVHGFSHVF-OH [Clavanin E]” came in with an MIC in data set [6] of 32 µg/mL. In addition, in data set [2], the “pKa, species H2L” value was determined as 9.19; the “pKa, species H3L” value amounted to 8.29; the “pKa, species H4L” value stood at 7.82; the “pKa, species H5L” value worked out at 7.30. Moreover, in data set [2], the “pKa, species H6L” value was 5.55; the “pKa, species HL” value turned out to be 10.77; the “log β H2L” value is recorded as 19.96 (3); the “log β H3L” value was 28.25 (3). Moreover, in data set [2], the “log β H4L” value is 36.07 (3), the “log β H5L” value is 43.37 (3), the “log β H6L” value is recorded as 48.92 (4) and the “log β HL” value is reported as 10.77 (2). In data set [3], the “pKa, line CuH2L” value is given as 6.90; the “pKa, line CuH3L” value is recorded as 5.96; the “pKa, line CuH4L” value amounted to 5.16; the “pKa, line CuH-1L” value came out at 8.78. Besides, in data set [3], the “pKa, line CuH-2L” value was 10.05; the “pKa, line CuH-3L” value is on record as 10.37; the “pKa, line CuHL” value was determined as 7.72; the “pKa, line CuL” value is listed as 8.81. In addition, in data set [3], the “pKa, line ZnH2L” value turned out to be 7.18; the “pKa, line ZnHL” value worked out at 8.62; the “pKa, line ZnL” value was found to be 9.77. For the same molecule, in data set [3] (setting [7]), the “log β CuH2L” value is listed as 29.52 (3), the “log β CuH3L” value is 36.42 (3), the “log β CuH4L” value was 42.38 (2) and the “log β CuH5L” value is listed as 47.54 (3). Moreover, in data set [3] (setting [7]), the “log β CuH-1L” value is reported as 4.21 (4), the “log β CuH-2L” value is on record as -5.84 (4), the “log β CuH-3L” value is reported as -16.21 (5) and the “log β CuHL” value is given as 21.80 (3). For the same molecule, the “log β CuL” value in data set [3] (setting [7]) is 12.99 (4). Also, in data set [3] (setting [8]), the “log β ZnH2L” value is 25.12 (5), the “log β ZnH3L” value is on record as 32.30 (11), the “log β ZnHL” value is listed as 16.50 (6) and the “log β ZnL” value amounted to 6.73.
With VFQFLGRIIHHVGNFVHGFSHVF [Clavanin B], in data set [2], the “pKa, species H2L” value came out at 9.04; the “pKa, species H3L” value is reported as 8.26; the “pKa, species H4L” value was determined as 7.79; the “pKa, species H5L” value worked out at 7.09. Moreover, in data set [2], the “pKa, species H6L” value was 5.12 and the “pKa, species HL” value came out at 11.17. For the same molecule, in data set [3], the “pKa, line CuH2L” value is reported as 6.86; the “pKa, line CuH3L” value stood at 5.99; the “pKa, line CuH-1L” value was found to be 9.40; the “pKa, line CuH-2L” value was 10.14. In data set [3], the “pKa, line CuH-3L” value was determined as 11.28; the “pKa, line CuHL” value turned out to be 7.71; the “pKa, line CuL” value is 8.64; the “pKa, line ZnH2L” value stood at 7.37. Further, in data set [3], the “pKa, line ZnH3L” value was 6.62; the “pKa, line ZnHL” value was found to be 8.39; the “pKa, line ZnL” value came to 10.32.
`O=C(N[C@H](CO)[C@H](O)c1ccc([N+](=O)[O-])cc1)C(Cl)Cl` [Chloramphenicol]: in data set [4], the “MIC breakpoints R>” value was > 8 µg/mL and the “MIC breakpoints S≤” value is given as ≤ 8 µg/mL.
As to `NCC[C@H](O)C(=O)N[C@@H]1C[C@H](N)[C@@H](O[C@H]2O[C@H](CN)[C@@H](O)[C@H](O)[C@H]2O)[C@H](O)[C@H]1O[C@H]1O[C@H](CO)[C@@H](O)[C@H](N)[C@H]1O` [Amikacin], in data set [4], the “MIC breakpoints R>” value is on record as > 8 µg/mL and the “MIC breakpoints S≤” value is listed as ≤ 8 µg/mL.
Turning to `O=C1CN(/N=C/c2ccc([N+](=O)[O-])o2)C(=O)N1` [Nitrofurantoin], the “MIC breakpoints R>” value in data set [4], in data set [1] and in data set [5] was > 64 µg/mL in each case. For the same molecule, the “MIC breakpoints S≤” value in data set [4], in data set [1] and in data set [5] was ≤ 64 µg/mL throughout.
